These results are taken from patent US12310946B2, “Pharmaceutical composition for oral administration of edaravone and method of administering same” (MITSUBISHI TANABE PHARMA CORPORATION, priority 2020, dated 2025).

Data set [1] is described as follows: Clinical study #9: PK of edaravone oral formulation (formula #3) in healthy adults (reference group), oral, fasted. To be noted: both sexes, human, plasma, 105 mg oral, healthy (n = 42), mean, before weight correction. The class given is in vivo. Here is the method:
On the other hand, a clinical study #9 shown below was conducted in healthy adult male and female subjects (42 in total) (the reference group). That is, the edaravone oral formulation of the formula #3 was administered orally to the reference group in fasted conditions after a lapse of 10 hours or longer. Then, blood samples were each collected before the administration, and 5 minutes, 15 minutes, 30 minutes, 45 minutes, 1 hour, 1.5 hours, 2 hours, 4 hours, 6 hours, 8 hours, 10 hours, 12 hours, 24 hours, 36 hours, and 48 hours after the administration, and the concentrations of unchanged edaravone in plasma were measured.
The resulting PK parameters were corrected for body weight of each subject adjusted to 70 kg by a proportional calculation for each of the patient group and the reference group. In addition, the results of the PK parameters after correction of the patient group are shown as box-whisker plots of #9 (the reference group), and individual plots of #5 (the patient group) and #9 (the reference group) in FIG. 3. In FIG. 3, X represents a mean value. […] Thus, the difference in the Cmax and the difference in the AUC before weight correction between the patient group and the reference group seen in Table 9 below are considered due to the difference in body weight between the patient group and the reference group, and the difference in the Cmax and the difference in the AUC after weight correction between the patient group and the reference group observed in FIG. 3 are each considered to be within the range of error.

A short description of data set [2]: Clinical studies #7 and #8: edaravone oral dose vs AUC (4-parameter logistic model) compared with 60-mg intravenous administration. The class given is in vivo. Particulars: human, plasma; approved 60-mg edaravone intravenous administration formulation (60 mg/60 min). Here is the method:
Specifically, clinical studies #7 and #8 described below were conducted in healthy adult male subjects for each subject group. In clinical studies #7 and #8, one dose each of edaravone oral formulations (edaravone suspensions) of formulas #7 and #8 shown in Table 11 below were used respectively and administered orally once during the study period.
Any of the edaravone oral formulations (formula #7) with an edaravone content of 30 mg, 60 mg, 120 mg, 200 mg, or 300 mg was administered orally to subjects in fasted conditions after a lapse of 10 hours or longer from consumption of a meal. The edaravone oral formulations with each content were each administered orally to 6 subjects. Blood samples were each collected before the administration, and 15 minutes, 30 minutes, 1 hour, 1.5 hours, 2 hours, 4 hours, 6 hours, 8 hours, 12 hours, 24 hours, 36 hours, and 48 hours after the administration, the concentrations of unchanged edaravone were measured, and the AUCs were calculated.
The edaravone oral formulations (formula #8) with an edaravone content of 100 mg was administered orally to 9 subjects in fasted conditions after a lapse of 10 hours or longer from consumption of a meal. […]

The nature of data set [3]: Oxidation of edaravone depending on pH. The class given is physicochemical. To be noted: dependence on pH.
Data set [4] in a line: Clinical study #6: PK of edaravone oral formulation (formula #3) via PEG tube in ALS patients. It is filed as in vivo, human. Particulars: for Cmax: 105 mg. Here is the method: Pharmacokinetics of edaravone in administration of the edaravone oral formulation via a PEG tube was evaluated. Specifically, a clinical study #6 described below was conducted in ALS patients with a percutaneous endoscopic gastrostomy tube (PEG tube) (the patient group).
The edaravone oral formulation was administered via a PEG tube to the patient group in fasted conditions after a lapse of 10 hours or longer from consumption of a meal. That is, first, 100 mL of lukewarm water was injected through a PEG tube 1 hour before the administration of the edaravone oral formulation, and 10 mL of lukewarm water was injected through a PEG tube immediately before the administration. Then, the edaravone oral formulation was administered to the PEG tube, and further 10 mL of water was injected through the PEG tube three times to wash in the edaravone oral formulation. In the patient group, ALS patients who had been already administered with an edaravone intravenous infusion formulation were administered with the edaravone oral formulation via a PEG tube after a lapse of 48 hours or longer from the time of completion of the previous administration of the intravenous infusion formulation. Blood samples were each collected before the administration, and 15 minutes, 30 minutes, 1 hour, 2 hours, 4 hours, 8 hours, and 24 hours after the administration, and the concentrations of unchanged edaravone in plasma were measured. […] For the reference example, the results of the reference group in Example 4, in which the edaravone oral formulation of the same formula #3 was administered orally and blood samples were collected, were utilized.
The resulting PK parameters were corrected for body weight of each subject in the patient group adjusted to 70 kg by a proportional calculation. In addition, the results of the PK parameters after correction of the patient group are shown in individual plots as #6 in FIG. 3. A comparison was made between the patient group administered via a PEG tube in Table 10 below and the reference group administered orally in Table 9 above. […] Thus, the difference in the Cmax and the difference in the AUC before weight correction between the patient group administered via a PEG tube and the reference group administered orally seen in Table 10 below are considered due to the difference in body weight between the patient group administered via a PEG tube and the reference group administered orally, and the difference in the Cmax and the difference in the AUC after weight correction between the patient group administered via a PEG tube and the reference group administered orally seen in FIG. 3 are each considered to be within the range of error.

Setting [5] is: after weight correction (70 kg).
Where [6] appears, read: human, plasma, 105 mg via PEG tube, fasted, ALS patients, mean, before weight correction.

Turning to `CC1=NN(c2ccccc2)C(=O)C1` [Edaravone, 3-methyl-1-phenyl-2-pyrazolin-5-one], the results for the AUC(0-inf) in data set [1] and in data set [4] (setting [6]) were 1.76 µg·h/mL and 2.34 µg·h/mL, respectively. The Cmax in data set [1] came out at 1.66 µg/mL; in data set [4] (human, plasma, 105 mg via PEG tube, ALS patients, corrected to 70 kg, read-out: Cmax after weight correction, mean value±standard error), 1.58 ± 0.251 µg/mL; in data set [4] (human, plasma, 105 mg via PEG tube, fasted, ALS patients, mean, before weight correction, read-out: Cmax) it was 2.16 µg/mL. Also, the Tmax in data set [1] was determined as 26.4 min; in data set [4] (setting [6]), 19.8 min. Moreover, the AUC is 1.74 µg·h/mL in data set [2] and 1.7 ± 0.228 µg·h/mL in data set [4] (human, plasma, 105 mg via PEG tube, ALS patients, corrected to 70 kg, read-out: AUC after weight correction, mean value±standard error). Further, the oxidation of edaravone entry in data set [3] is “accelerated at a pH of 2.5 or lower and at a pH of 6.0 or higher”. The “difference in the AUC between the patient group administered via a PEG tube and the reference group administered orally” value in data set [4] (setting [5]) stood at 9.5%; in data set [4] (before weight correction), 33%. The “difference in the Cmax between the patient group administered via a PEG tube and the reference group administered orally” value in data set [4] (setting [5]) was 8.3%; in data set [4] (before weight correction) it was 30%.

One may read the AUC(0-inf) as total exposure, with the tail of the curve extrapolated. The Cmax is the highest concentration seen after dosing. Broadly, the Tmax is the time at which the peak concentration occurs. For orientation: AUC means the area under the concentration-time curve, a measure of exposure.
